Where a name gives a salt, the structure may show the parent alone.
What follows are compounds tested on JEKO-1 cells stably transfected with shRNAs to luciferase or NOXA (assay: Effect of NOXA shRNA on cytotoxicity in JEKO-1 cells (MTT)). Details: JEKO-1 shLuc vs shNoxa, 24 hours.
Assay type: cell-based
Method: The effect of NOXA on cytotoxicity of CBU-028, EERI, or bortezomib is determined. FIG. 4 presents graphs comparing CBU-028, EERI, and bortezomib with respect to percent cell viability as a function of concentration, measured using JEKO-1 cells stably transfected with shRNAs to luciferase (shLuc, control, ▪) or NOXA (shNoxa, ◯, sequence: [NT]) after treatment with the compound for 24 hrs, with viability determined with MTT as described above and normalized to the untreated control.

| SMILES | requirement of NOXA for cytotoxicity |
| --- | --- |
| CC(C)C[C@H](NC(=O)[C@H](Cc1ccccc1)NC(=O)c1cnccn1)B(O)O [bortezomib] | Noxa is equally required |

The compounds below were run on JEKO-1 cells (assay: cells). Details: Homo sapiens, JeKo-1, 48 h.

| SMILES | IC50 [µM] |
| --- | --- |
| O=C(N/N=C/C=C/c1ccc([N+](=O)[O-])o1)c1ccc(C(=O)N/N=C/C=C/c2ccc([N+](=O)[O-])o2)c(O)c1O [CBU-049, (N′1E,N′4E)-2,3-dihydroxy-N′1,N′4-bis((E)-3-(5-nitrofuran-2-yl)allylidene)terephthalo hydrazide] | 1.5 |
| CC1(C)C(N(O)C(=O)Nc2ccc(C(F)(F)F)cc2)N(c2ccc(C(F)(F)F)cc2)C(=O)N1CC(=O)NN (centres unmarked) [CBU-007, 1-(1-(2-hydrazinyl-2-oxoethyl)-5,5-dimethyl-2-oxo-3-(4-(tri-fluoromethyl)phenyl)imi-dazolidin-4-yl)-1-hydroxy-3-(4-(trifluoromethyl)phenyl)urea] | 30 |

Same assay, conditions: Homo sapiens, JeKo-1, 48 h, JEKO-1 cells, incubated 2 days, MTT, four parameter logistic fit

| SMILES | IC50 [µM] |
| --- | --- |
| O=C(N/N=C/C=C/c1ccc([N+](=O)[O-])o1)c1ccccc1O [CBU-025, (E)-2-hydroxy-N′-((E)-3-(5-nitrofuran-2-yl)allylidene)benzohydrazide] | 6.5 |
| O=C(N/N=C/C=C/c1ccc([N+](=O)[O-])o1)c1cc(Br)ccc1O [CBU-041, (E)-5-bromo-2-hydroxy-N′-((E)-3-(5-nitrofuran-2-yl)allylidene)benzohydrazide] | 10 |
| CC1(C)C(N(O)C(=O)Nc2ccc(Cl)cc2)N(c2ccc(C(F)(F)F)cc2)C(=O)N1CC(=O)N/N=C/C=C/c1ccc([N+](=O)[O-])o1 (centres unmarked) [CBU-013] | 3 |
| O=C(N/N=C/C=C/c1ccc([N+](=O)[O-])o1)c1ccccc1 [CBU-015, (E)-N′-((E)-3-(5-nitrofuran-2-yl)allylidene)benzohydrazide] | 8 |
| O=C(N/N=C/C=C/c1ccc([N+](=O)[O-])o1)c1cccs1 [CBU-034, (E)-N′-((E)-3-(5-nitrofuran-2-yl)allylidene)thiophene-2-carbohydrazide] | 20 |
| CC1(C)C(N(O)C(=O)Nc2ccc(Cl)cc2)N(c2ccc(Cl)cc2)C(=O)N1CC(=O)N/N=C/c1ccc([N+](=O)[O-])o1 (centres unmarked) [CBU-024] | 7 |
| N=C(N)N/N=C/C=C/c1ccc([N+](=O)[O-])o1 [CBU-020, (E)-2-((E)-3-(5-nitrofuran-2-yl)allylidene)hydrazine-carboximidamide hydrochloride] | 4 |
| O=C(N/N=C/C=C/c1ccc([N+](=O)[O-])o1)c1cccc(O)c1 [CBU-021, (E)-3-hydroxy-N′-((E)-3-(5-nitrofuran-2-yl)allylidene)benzohydrazide] | 8 |
| O=C(N/N=C/C=C/c1ccc([N+](=O)[O-])o1)c1cccnc1 [CBU-016, (E)-N′-((E)-3-(5-nitrofuran-2-yl)allylidene)nicotinonhydrazide] | 7 |
| O=C(N/N=C/C=C/c1ccccc1)c1cc2ccccc2cc1O [CBU-051, (E)-3-hydroxy-N′-((E)-3-phenylallylidene)-2-naphthohydrazide] | 10 |
| O=C(N/N=C/C=C/c1ccc([N+](=O)[O-])o1)c1cnc2cc(C(F)(F)F)ccc2c1O [CBU-039, (E)-4-hydroxy-N′-((E)-3-(5-nitrofuran-2-yl)allylidene)-7-(trifluoromethyl)quinoline-3-carbohydrazide] | 15 |
| C[N+](C)(C)CC(=O)N/N=C/C=C/c1ccc([N+](=O)[O-])o1 [CBU-019] | 3.5 |
| CC1(C)C(N(O)C(=O)Nc2ccc(C(F)(F)F)cc2)N(c2ccc(C(F)(F)F)cc2)C(=O)N1CC(=O)N/N=C/C=C/c1ccc([N+](=O)[O-])o1 (centres unmarked) [CBU-008] | 2.5 |
| O=C(N/N=C/C=C/c1ccc([N+](=O)[O-])o1)c1ccc(O)cc1O [CBU-042, (E)-2,4-dihydroxy-N′-((E)-3-(5-nitrofuran-2-yl)allylidene)benzohydrazide] | 40 |
| O=C(N/N=C/C=C/c1ccc([N+](=O)[O-])o1)c1ccc(O)cc1 [CBU-027, (E)-4-hydroxy-N′-((E)-3-(5-nitrofuran-2-yl)allylidene)benzohydrazide] | 7.5 |
| O=C(N/N=C/C=C/c1ccc([N+](=O)[O-])cc1)c1cc2ccccc2cc1O [CBU-061, (E)-3-hydroxy-N′-((E)-3-(4-nitrophenyl)allylidene)-2-naphthohydrazide] | 5 |

| SMILES | IC50 [µM] |
| --- | --- |
| COc1ccc(C(=O)N/N=C/C=C/c2ccc([N+](=O)[O-])o2)c(O)c1 [CBU-043, (E)-2-hydroxy-4-methoxy-N′-((E)-3-(5-nitrofuran-2-yl)allylidene)benzohydrazide] | 30 |
| CC1(C)C(N(O)C(=O)Nc2ccc(Cl)cc2)N(c2ccc(Cl)cc2)C(=O)N1CC(=O)N/N=C/C=C/c1ccco1 (centres unmarked) [CBU-023] | 15 |
| Cc1ccc(O)c(C(=O)N/N=C/C=C/c2ccc([N+](=O)[O-])o2)c1 [CBU-045, (E)-2-hydroxy-5-methyl-N′-((E)-3-(5-nitrofuran-2-yl)allylidene)benzohydrazide] | 6 |
| O=C(CNC(=O)Nc1ccc(Cl)cc1)N/N=C/C=C/c1ccc([N+](=O)[O-])o1 [CBU-022, 1-(4-chlorophenyl)-3-(2-((E)-2-((E)-3-(5-nitrofuran-2-yl)allylidene)hydrazinyl)-2-oxoethyl)urea] | 6 |
| CC1(C)C(N(O)C(=O)Nc2ccc(C(F)(F)F)cc2)N(c2ccc(Cl)cc2)C(=O)N1CC(=O)N/N=C/C=C/c1ccc([N+](=O)[O-])o1 (centres unmarked) [CBU-014] | 3 |
| CC(C)(C)OC(=O)N/N=C/C=C/c1ccc([N+](=O)[O-])o1 [CBU-018, (E)-tert-butyl 2-((E)-3-(5-nitrofuran-2-yl)allylidene)hydrazine-carboxylate] | 18 |
| CCNC(=S)N/N=C/C=C/c1ccc([N+](=O)[O-])o1 [CBU-017, (E)-N-ethyl-2-((E)-3-(5-nitrofuran-2-yl)allylidene)hydrazine-carbothioamide] | 15 |
| CN(C)c1ccc(/C=C/C=N/NC(=O)c2cc3ccccc3cc2O)cc1 [CBU-054, (E)-N′-((E)-3-(4-(dimethylamino)phenyl)allylidene)-3-hydroxy-2-naphthohydrazide] | 15 |
| O=C(N/N=C/C=C/c1ccc([N+](=O)[O-])o1)c1nc(O)c2ccccc2c1O [CBU-036, (E)-1,4-dihydroxy-N′-((E)-3-(5-nitrofuran-2-yl)allylidene)isoquinoline-3-carbohydrazide] | 9 |
| O=C(N/N=C/C=C/c1ccccc1[N+](=O)[O-])c1cc2ccccc2cc1O [CBU-055, (E)-3-hydroxy-N′-((E)-3-(2-nitrophenyl)allylidene)-2-naphthohydrazide] | 6 |
| O=C(/C=C/c1ccc([N+](=O)[O-])o1)NNC(=O)c1cc2ccccc2cc1O [CBU-062, (E)-3-hydroxy-N′-(3-(5-nitrofuran-2-yl)acryloyl)-2-naphthohydrazide] | 2.5 |
| O=C(N/N=C/C=C/c1ccc([N+](=O)[O-])o1)c1ccncc1 [CBU-033, (E)-N′-((E)-3-(5-nitrofuran-2-yl)allylidene)isonicotino-hydrazide] | 6 |
| Cc1cccc(C(=O)N/N=C/C=C/c2ccc([N+](=O)[O-])o2)c1O [CBU-038, (E)-2-hydroxy-3-methyl-N′-((E)-3-(5-nitrofuran-2-yl)allylidene)benzohydrazide] | 9 |
| COc1ccc(O)c(C(=O)N/N=C/C=C/c2ccc([N+](=O)[O-])o2)c1 [CBU-046, (E)-2-hydroxy-5-methoxy-N′-((E)-3-(5-nitrofuran-2-yl)allylidene)benzohydrazide] | 10 |
| CC1(C)C(N(O)C(=S)Nc2ccc(Cl)cc2)N(c2ccc(Cl)cc2)C(=S)N1CC(=O)N/N=C/C=C/c1ccc([N+](=O)[O-])o1 (centres unmarked) [CBU-073] | 3 |
| O=C(N/N=C/C=C/c1ccc([N+](=O)[O-])o1)c1cnc2c(C(F)(F)F)cccc2c1O [CBU-040, (E)-4-hydroxy-N′((E)-3-(5-nitrofuran-2-yl)allylidene)-8-(trifluoromethyl)quinoline-3-carbohydrazide] | 10 |
